This is an account of results in patent US12642798B2, “Aripiprazole prodrug composition” (ALKERMES PHARMA IRELAND LIMITED, priority 2014, dated 2026).

SMILES strings stand for the structures.

The nature of this series: Particle size analysis by laser light scattering (Horiba). It is filed as physicochemical. As to conditions: solid particulate form prior to milling. The text has this:
The term “particle size” or “volume based particle size” or “volume based particle size distribution” as used herein is equivalent to and also referred to as the Dv50 or D50 and means that at least about 50% of the aripiprazole prodrug particles have a diameter of less than the size specified. The aforementioned terms are used interchangeably herein. For example a volume based particle size (Dv50) of less than 1000 nm, means that 50% of the particle population has a diameter of less than 1000 nm when measured by static or dynamic light scattering techniques known to those skilled in the art. […] Unless otherwise specified, all particle sizes are specified in terms of volume based measurements and are measured by laser light scattering/diffraction. Particle sizes are then determined based on Mie scattering theory. More specifically, unless otherwise specified, volume based particle size (Dv50) is determined using a Horiba LA-950 standard model laser particle size analyser. Deionized water or water with a small quantity (for example 0.1% w/w) of surface stabilizer (for example polysorbate 20) is used as the sizing medium unless otherwise specified. […]
The particle size of the present composition may be measured using techniques such as light scattering with either water or a dilute surface stabilizer solution as the diluent. […]

Regarding `CCCCCC(=O)OCN1C(=O)CCc2ccc(OCCCCN3CCN(c4cccc(Cl)c4Cl)CC3)cc21` [aripiprazole cavoxil, (7-(4-(4-(2,3-Dichlorophenyl)piperazin-1-yl)butoxy)-2-oxo-3,4-dihydroquinolin-1(2H)yl)methyl hexanoate], the “particle size (Dv50) prior to milling” value is listed as “greater than 8 microns”.
The result for `CCCCCCCCCCCC(=O)OCN1C(=O)CCc2ccc(OCCCCN3CCN(c4cccc(Cl)c4Cl)CC3)cc21` [aripiprazole lauroxil, Dodecanoic acid, [7-[4-[4-(2,3-dichlorophenyl)-1-piperazinyl]butoxy]-3,4-dihydro-2-oxo-1(2H)-quinolinyl]methyl ester] reads “greater than 10 microns”.
